Laboratory results published in patent publication US7495027B2, “3-aryl-4-hydroxyfuranone compounds and the human and animal health use thereof” (Wyeth, priority 2003, dated 2009).
≈ marks a conversion by molar mass, not a printed value. Where two headings read alike, the source gives them in different places.

Experiments:
[1] = target: T1, S. aureus Uridine-diphosphate-N-acetylmuramoyl-L-alanine: D-glutamate liease, MurD (Staphylococcus aureus, UniProt Q2FZ92); test: biochemical; conditions: (S) S. aureus enzyme
T1 sequence (Q2FZ92 1-449): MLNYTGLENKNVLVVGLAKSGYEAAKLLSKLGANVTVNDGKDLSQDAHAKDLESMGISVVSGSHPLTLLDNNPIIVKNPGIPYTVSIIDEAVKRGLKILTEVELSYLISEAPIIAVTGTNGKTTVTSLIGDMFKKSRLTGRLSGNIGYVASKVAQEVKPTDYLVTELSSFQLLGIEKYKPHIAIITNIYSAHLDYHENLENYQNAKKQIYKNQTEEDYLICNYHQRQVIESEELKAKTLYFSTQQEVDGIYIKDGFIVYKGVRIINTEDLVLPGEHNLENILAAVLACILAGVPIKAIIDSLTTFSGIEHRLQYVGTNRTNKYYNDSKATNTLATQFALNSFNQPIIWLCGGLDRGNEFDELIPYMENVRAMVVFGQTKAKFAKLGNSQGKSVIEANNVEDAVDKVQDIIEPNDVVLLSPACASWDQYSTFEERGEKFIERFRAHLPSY
Method in brief: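 Test solutions, 10 mg/mL stocks in DMSO, were brought to 100 μg/mL with 50 mM Tris/HCl (pH 8.5). Their inhibition of MurD, the enzyme of the fourth cell wall biosynthesis step, was measured.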

[2] = system: Streptococci; test: Minimum inhibitory concentration, microdilution broth method, streptococci; type: cell-based; conditions: Mueller-Hinton broth with 5% horse blood, 18-22 hours at 35° C.; for MIC: S. pneumo GC 1894
Method in brief: (§1)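 Organisms, including methicillin-, penicillin- and/or vancomycin-resistant clinical isolates, tested by NCCLS M7-A5 microdilution. Medium: Mueller-Hinton broth for staphylococci and enterococci, supplemented with 5% lysed horse blood for streptococci.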

[3] = target: T2, S. aureus Uridine-diphosphate-N-acetvimuramoyl: L-alanine lipase, MurC (Staphylococcus aureus, UniProt Q2FXJ0); test: biochemical; conditions: (S) S. aureus enzyme; for IC50: read-out: MurC IC50 (converted)
T2 sequence (Q2FXJ0 1-437): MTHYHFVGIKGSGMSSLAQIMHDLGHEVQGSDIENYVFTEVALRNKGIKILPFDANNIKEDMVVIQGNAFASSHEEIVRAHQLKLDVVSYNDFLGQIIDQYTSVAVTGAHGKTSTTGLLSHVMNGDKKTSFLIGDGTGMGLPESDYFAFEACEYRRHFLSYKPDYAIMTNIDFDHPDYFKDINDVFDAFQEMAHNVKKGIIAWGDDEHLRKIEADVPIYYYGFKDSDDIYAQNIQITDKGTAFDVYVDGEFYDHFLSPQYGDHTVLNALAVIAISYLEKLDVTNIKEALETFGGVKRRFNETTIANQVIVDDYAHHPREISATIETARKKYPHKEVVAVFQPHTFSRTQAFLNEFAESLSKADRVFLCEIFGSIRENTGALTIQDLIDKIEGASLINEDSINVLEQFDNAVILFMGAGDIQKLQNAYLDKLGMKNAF
Procedure: S. aureus and E. coli Uridine-diphosphate-N-acetvimuramoyl: L-alanine lipase, MurC
Preparation of Enzyme Solution:
A 1 mg/mL stock solution of MurC is prepared in a buffer consisting of 20 mM Tris/HCl (pH 8.5) with 2.5 μM BME. The stock solution is further diluted with the buffer to give a final enzyme concentration of 100 μg/mL for the E. coli stock solution and 70 μg/mL for the S. aureus stock solution.
Preparation of Test Compound Solutions:
All test solutions are prepared in DMSO as 10 mg/mL, then diluted with 50 mM Tris/HCl (pH 8.5) to 100 μg/mL.
Preparation of Stop Solution:
The stop solution is prepared by stirring 1 part 4.2% ammonium molydbate in 4N HCl with 2 parts 0.045% malachite green for 30 min.
In this evaluation, the inhibitory activity of a test compound against MurC, the enzyme which catalyzes the third step of bacterial cell wall bioxynthesis is determined. Experiments are performed by adding 2.5 μl buffer, 2.5 μl 0.5M NH4SO2, 5 μl 2 μM L-Ala, 5 μl enzyme solution and 6.5 μl test compound solution to each well in a 96-well microplate. After a pre-incubation period of 10 mins. at 23° C., 3.75 μl of a 0.75 μM solution of UDP-MurNac is added to each well. Following an incubation period of 10 mins. at 37° C., 210 μl stop solution and 50 μl of a 34% w/v sodium citrate solution are added and color is allowed to develop for 10 mins. at 23° C. (Lanzetta et al., Analytical Biochemistry, 1979, 95) Optical density readings are taken at 660 nm using a Molecular Devices Spectra Max 250 with Soft Max software. Controls are performed using the same procedure and omitting the addition of UDP-MurNac. […]
Using these values the IC50 is determined by linear regression analysis.

[4] = system: staphylococci; test: Minimum inhibitory concentration, microdilution broth method, staphylococci; type: cell-based; conditions: Mueller-Hinton broth, 18-22 hours at 35° C.; for MIC: Staphylococcus aureus
Method in brief: as §1

[5] = S. aureus GC 1131, read-out: MIC S. aureus GC 1131
[6] = S. aureus GC 4543, read-out: MIC S. aureus GC 4543

SMILES | MurD IC50 [1] | MIC S. pneumo GC 1894 [2] | MurC IC50 [3] | MIC S. aureus GC 1131 ([4]; S. aureus GC 1131) | MIC S. aureus GC 4543 ([4]; S. aureus GC 4543) | IC50 [1] | MIC [2] | IC50 [3] | MIC [4, 5] | MIC [4, 6]
O=C1O/C(=C\c2ccc(-c3cccc(C(F)(F)F)c3)cc2)C(O)=C1c1cccc(C(F)(F)F)c1 | 15 µg/mL | <0.125 µg/mL | 22 µg/mL | 4 µg/mL (≈ 8.4 µM) | 1 µg/mL (≈ 2.1 µM) |  |  |  |  | 
O=C1O/C(=C\c2ccc(-c3cc(Cl)cc(Cl)c3)cc2)C(O)=C1c1cc(Cl)cc(Cl)c1 |  |  |  |  |  | > 52.3 µM | < 0.125 µg/mL | 48.1 µM | 4 µg/mL (≈ 8.37 µM) | 0.5 µg/mL (≈ 1.05 µM)
O=C1OC(=Cc2ccc(-c3ccccc3)cc2)C(O)=C1c1cccc(C(F)(F)F)c1 (mixture of isomers) [Example 11] | 11 µg/mL | <0.125 µg/mL | 5 µg/mL | 4 µg/mL | 2 µg/mL |  |  |  |  | 
Cc1ccc(C=C2OC(=O)C(c3ccc(Cl)cc3)=C2O)s1 (mixture of isomers) [Example 13] | 20 µg/mL | 2 µg/mL | 15 µg/mL | 64 µg/mL | >128 µg/mL |  |  |  |  | 
O=C1OC(=Cc2cccc3ccccc23)C(O)=C1c1ccc(C=NO)cc1 (mixture of isomers) [Example 73] | >25 (E); >25 (S) μg/mL | 64 µg/mL | 23 µg/mL | >128 µg/mL | >128 µg/mL |  |  |  |  | 
O=C1O/C(=C\c2ccc(-c3ccccc3)cc2)C(O)=C1c1cccc(C(F)(F)F)c1 [Example 10] |  |  |  |  |  | 31.8 µM | < 0.125 µg/mL | 17.1 µM | 4 µg/mL (≈ 9.79 µM) | 2 µg/mL (≈ 4.9 µM)
Cc1ccc(C=C2OC(=O)C(c3ccc(Cl)cc3)=C2O)s1 [Example 14] | >25 (E); >25 (S) μg/mL | 64 µg/mL (≈ 201 µM) | 22 µg/mL | >128 µg/mL | >128 µg/mL |  |  |  |  | 
O=C1O/C(=C\C2CCCCC2)C(O)=C1c1ccc(Cl)cc1 [Example 15] |  |  |  |  |  | > 82 µM | 0.5 µg/mL (≈ 1.64 µM) | > 82 µM | 64 µg/mL (≈ 210 µM) | 64 µg/mL (≈ 210 µM)
O=C1OC(=CC2CCCCC2)C(O)=C1c1cccc(C(F)(F)F)c1 [Example 16] | >25 (E); >25 (S) μg/mL | 0.5 µg/mL (≈ 1.48 µM) | 22 µg/mL | 64 µg/mL (≈ 189 µM) | >128 µg/mL |  |  |  |  | 
O=C1O/C(=C\C2CCCCC2)C(O)=C1c1cccc(C(F)(F)F)c1 [Example 17] |  |  |  |  |  | > 73.9 µM | < 0.125 µg/mL | > 73.9 µM | 32 µg/mL (≈ 94.6 µM) | > 128 µg/mL
COc1cc(/C=C2\OC(=O)C(c3cccc(Cl)c3)=C2O)ccc1-c1ccccc1Cl [Example 18] |  |  |  |  |  | 41 µM | 0.5 µg/mL (≈ 1.14 µM) | 22.8 µM | 4 µg/mL (≈ 9.11 µM) | 4 µg/mL (≈ 9.11 µM)
COc1ccccc1-c1ccc(/C=C2\OC(=O)C(c3cc(Cl)cc(Cl)c3)=C2O)cc1OC [Example 19] |  |  |  |  |  | 36.2 µM | 0.5 µg/mL (≈ 1.07 µM) | 40.5 µM | 2 µg/mL (≈ 4.26 µM) | 2 µg/mL (≈ 4.26 µM)
COc1ccccc1-c1ccc(/C=C2\OC(=O)C(c3ccc(Cl)c(Cl)c3)=C2O)cc1OC [Example 20] |  |  |  |  |  | 40.5 µM | 0.5 µg/mL (≈ 1.07 µM) | 32 µM | 4 µg/mL (≈ 8.52 µM) | 4 µg/mL (≈ 8.52 µM)
